Several values for one entry are separate records, joined by “and”; a condition that tells them apart may be missing. Equal values may be shown once.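 Compound exposure: 48 hours, 5 concentrations, 96-well plates. Abbreviation: GI50, concentration required for 50% inhibition of growth. TGI: concentration producing complete growth inhibition.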
Legend:
Assay in all cases: NCI-60 cell line screen, 48 h
EKVX NSCLC = system: EKVX NSCLC
PC-3 prostate = system: PC-3 prostate
HOP-62 NSCLC = system: HOP-62 NSCLC
OVCAR-4 ovarian = system: OVCAR-4 ovarian
NCI-H460 lung = system: NCI-H460 lung
HS 578T breast = system: HS 578T breast
HL-60(TB) leukemia = system: HL-60(TB) leukemia
K-562 leukemia = system: K-562 leukemia
SK-MEL-5 melanoma = system: SK-MEL-5 melanoma
SNB-75 CNS = system: SNB-75 CNS

In the case of Cc1ccc(C(=O)Nc2ccc(CN3CCN(C)CC3)c(C(F)(F)F)c2)cc1C#Cc1cnc(N)c2ccc(F)cc12, the GI50 (EKVX NSCLC) is reported as 1.06 µM, the TGI (EKVX NSCLC) is reported as 4.73 µM and the GI50 (PC-3 prostate) is reported as 0.508 µM. It also gave a TGI (PC-3 prostate) of 1.66 µM, a GI50 (HOP-62 NSCLC) of 0.753 µM and a TGI (HOP-62 NSCLC) of 3.44 µM. The GI50 (OVCAR-4 ovarian) was 0.329 µM, the TGI (OVCAR-4 ovarian) was 2.32 µM and the GI50 (NCI-H460 lung) was 0.232 µM. For the same molecule, the TGI (NCI-H460 lung) was 0.647 µM, the GI50 (HS 578T breast) was 0.301 µM and the TGI (HS 578T breast) was 1.37 µM. The GI50 (HL-60(TB) leukemia) was 0.198 µM, the TGI (HL-60(TB) leukemia) was 1.35 µM and the GI50 (K-562 leukemia) was 0.00431 µM. The TGI (K-562 leukemia) was 0.9 µM, the GI50 (SK-MEL-5 melanoma) was 0.805 µM and the TGI (SK-MEL-5 melanoma) was 2.18 µM. The GI50 (SNB-75 CNS) was 0.256 µM and the TGI (SNB-75 CNS) was 0.863 µM.
For Clc1ccc(COC(Cn2ccnc2)c2ccc(Cl)cc2Cl)cc1 (centres undefined), the GI50 (EKVX NSCLC) was 2.91 µM, the TGI (EKVX NSCLC) was 13.9 µM and 25.5 µM and 27.5 µM and the GI50 (PC-3 prostate) was 1.8 µM. The TGI (PC-3 prostate) was 8.78 µM and 23.4 µM and 21.9 µM, the GI50 (HOP-62 NSCLC) was 3.02 µM and the TGI (HOP-62 NSCLC) was 13.6 µM and 26.8 µM and 35.6 µM. For the same molecule, the GI50 (OVCAR-4 ovarian) was 2.29 µM, the TGI (OVCAR-4 ovarian) was 13.6 µM and 27.7 µM and 24.5 µM and the GI50 (NCI-H460 lung) was 2.69 µM. The TGI (NCI-H460 lung) was 10.1 µM and 44.4 µM and 28.7 µM, the GI50 (HS 578T breast) was 3.72 µM and the TGI (HS 578T breast) was 22.9 µM and 38.8 µM and 40.5 µM. For the same molecule, the GI50 (HL-60(TB) leukemia) was 2.42 µM, the TGI (HL-60(TB) leukemia) was 5.2 µM and 22.7 µM and 16.6 µM and the GI50 (K-562 leukemia) was 2.8 µM. For the same molecule, the TGI (K-562 leukemia) was 10.2 µM and 23.9 µM and 21.1 µM, the GI50 (SK-MEL-5 melanoma) was 1.74 µM and 17.2 µM and 4.83 µM and the TGI (SK-MEL-5 melanoma) was 3.64 µM and 31 µM and 18.9 µM. For the same molecule, the GI50 (SNB-75 CNS) was 4.97 µM and the TGI (SNB-75 CNS) was 17.5 µM and 26.8 µM and 30.1 µM.
CCc1nc(N)nc(N)c1-c1ccc([N+](=O)[O-])c(NCc2ccccc2)c1 gave a TGI (EKVX NSCLC) of 41.6 µM, a TGI (PC-3 prostate) of 39.9 µM and a TGI (HOP-62 NSCLC) of 28.9 µM. For the same molecule, the TGI (OVCAR-4 ovarian) was 58.1 µM, the TGI (NCI-H460 lung) was 20.2 µM and the TGI (HS 578T breast) was 51.4 µM. The TGI (HL-60(TB) leukemia) was 18.7 µM, the TGI (K-562 leukemia) was 20.7 µM and the TGI (SK-MEL-5 melanoma) was 22.9 µM. It also gave a TGI (SNB-75 CNS) of 35.4 µM.
For O=C(Nc1ccc(OC(F)(F)F)cc1)c1sccc1NCc1ccnc2ccccc12, the GI50 (EKVX NSCLC) was 2.35 µM, the TGI (EKVX NSCLC) was > 100 µM and the GI50 (PC-3 prostate) was 3.74 µM. For the same molecule, the TGI (PC-3 prostate) was > 83.3 µM, the GI50 (HOP-62 NSCLC) was 9.55 µM and the TGI (HOP-62 NSCLC) was > 100 µM. The GI50 (OVCAR-4 ovarian) was 4.57 µM, the TGI (OVCAR-4 ovarian) was > 100 µM and the GI50 (NCI-H460 lung) was 4.01 µM. The TGI (NCI-H460 lung) was > 100 µM, the GI50 (HS 578T breast) was 3.39 µM and the TGI (HS 578T breast) was 26 µM. For the same molecule, the GI50 (HL-60(TB) leukemia) was 1.78 µM, the TGI (HL-60(TB) leukemia) was 19.3 µM and the GI50 (K-562 leukemia) was 1.61 µM. The TGI (K-562 leukemia) was > 100 µM, the GI50 (SK-MEL-5 melanoma) was 2.37 µM and the TGI (SK-MEL-5 melanoma) was 7.21 µM. For the same molecule, the GI50 (SNB-75 CNS) was 1.88 µM and the TGI (SNB-75 CNS) was 26.5 µM.
With CC(C)c1ccc2nc3ccc(C(=O)NCCN(C)C)cn3c(=O)c2c1 the TGI (EKVX NSCLC) was 34.7 µM, the TGI (PC-3 prostate) was 30.6 µM and the TGI (HOP-62 NSCLC) was 31.4 µM. For the same molecule, the TGI (OVCAR-4 ovarian) was 56.5 µM, the TGI (NCI-H460 lung) was 33.7 µM and the TGI (HS 578T breast) was 35.6 µM. The TGI (HL-60(TB) leukemia) was 42.1 µM, the TGI (K-562 leukemia) was 9.46 µM and the TGI (SK-MEL-5 melanoma) was 24.8 µM. It also gave a TGI (SNB-75 CNS) of 22.5 µM.
CC1(C)CCC(C)(C)c2cc(C(=O)Nc3ccc(C(=O)O)cc3)ccc21 was tested, and the TGI (EKVX NSCLC) was > 100 µM, the TGI (PC-3 prostate) was 51.7 µM and the TGI (HOP-62 NSCLC) was 37.5 µM. The TGI (OVCAR-4 ovarian) was 67.1 µM, the TGI (NCI-H460 lung) was 46.9 µM and the TGI (HS 578T breast) was > 46.8 µM. For the same molecule, the TGI (HL-60(TB) leukemia) was > 53.1 µM, the TGI (K-562 leukemia) was > 100 µM and the TGI (SK-MEL-5 melanoma) was > 56 µM. For the same molecule, the TGI (SNB-75 CNS) was > 100 µM.
For COC1/C=C/OC2(C)Oc3c(C)c(O)c4c(c3C2=O)C(=O)C=C(NC(=O)/C(C)=C\C=C\C(C)C(OC=O)C(C)C(O)C(C)C(OC(C)=O)C1C)C4=O (centres undefined), the TGI (EKVX NSCLC) was 25.8 µM, the TGI (PC-3 prostate) was 25.1 µM and the TGI (HOP-62 NSCLC) was 34.8 µM. It also gave a TGI (OVCAR-4 ovarian) of 19.1 µM, a TGI (NCI-H460 lung) of 42 µM and a TGI (HS 578T breast) of 44.9 µM. It also gave a TGI (HL-60(TB) leukemia) of 5.88 µM, a TGI (K-562 leukemia) of 20.7 µM and a TGI (SK-MEL-5 melanoma) of 31.6 µM. It also gave a TGI (SNB-75 CNS) of 41.1 µM.
For CSc1ccc(C2=Nn3c(nnc3-c3ccc(F)c(Cl)c3)SC2)cc1, the GI50 (EKVX NSCLC) was 42.1 µM, the TGI (EKVX NSCLC) was > 100 µM and the GI50 (PC-3 prostate) was 4.67 µM. The TGI (PC-3 prostate) was > 100 µM, the GI50 (HOP-62 NSCLC) was 5.84 µM and the TGI (HOP-62 NSCLC) was 19.5 µM. It also gave a GI50 (OVCAR-4 ovarian) of 23.6 µM, a TGI (OVCAR-4 ovarian) of 85.1 µM and a GI50 (NCI-H460 lung) of 14.6 µM. It also gave a TGI (NCI-H460 lung) of 38.6 µM, a GI50 (HS 578T breast) of 10 µM and a TGI (HS 578T breast) of 36.6 µM. The GI50 (HL-60(TB) leukemia) was 5.39 µM, the TGI (HL-60(TB) leukemia) was > 100 µM and the GI50 (K-562 leukemia) was 2.28 µM. The TGI (K-562 leukemia) was > 100 µM, the GI50 (SK-MEL-5 melanoma) was 11.9 µM and the TGI (SK-MEL-5 melanoma) was 52.7 µM. The GI50 (SNB-75 CNS) was 4.67 µM and the TGI (SNB-75 CNS) was 16 µM.
For CNC(=O)Nc1ccc(-c2nc(N3CCOCC3)nc3c2cnn3C2CCOCC2)cc1, the GI50 (EKVX NSCLC) was 0.18 µM, the TGI (EKVX NSCLC) was 2.42 µM and the GI50 (PC-3 prostate) was 0.0809 µM. For the same molecule, the TGI (PC-3 prostate) was 7.49 µM, the GI50 (HOP-62 NSCLC) was 0.23 µM and the TGI (HOP-62 NSCLC) was 4.38 µM. For the same molecule, the GI50 (OVCAR-4 ovarian) was 0.191 µM, the GI50 (NCI-H460 lung) was 0.131 µM and the TGI (NCI-H460 lung) was > 100 µM. The GI50 (HS 578T breast) was 0.0503 µM, the TGI (HS 578T breast) was 0.303 µM and the GI50 (HL-60(TB) leukemia) was 1.01 µM. For the same molecule, the TGI (HL-60(TB) leukemia) was > 100 µM, the GI50 (K-562 leukemia) was 0.533 µM and the TGI (K-562 leukemia) was > 100 µM. It also gave a GI50 (SK-MEL-5 melanoma) of 0.208 µM, a TGI (SK-MEL-5 melanoma) of 1.22 µM and a GI50 (SNB-75 CNS) of 0.045 µM. It also gave a TGI (SNB-75 CNS) of 0.448 µM.
For Cc1cc2c(cc1C)NC1=C(N2)OC(c2c[nH]c3ccc(COc4ccccc4)cc23)C1=O (centres undefined), the TGI (EKVX NSCLC) was > 100 µM, the TGI (PC-3 prostate) was > 100 µM and the TGI (HOP-62 NSCLC) was 49.8 µM. For the same molecule, the TGI (OVCAR-4 ovarian) was > 100 µM, the TGI (NCI-H460 lung) was > 100 µM and the TGI (HS 578T breast) was > 100 µM. For the same molecule, the TGI (HL-60(TB) leukemia) was > 100 µM, the TGI (K-562 leukemia) was > 100 µM and the TGI (SK-MEL-5 melanoma) was > 100 µM. The TGI (SNB-75 CNS) was 38.7 µM.
Cc1cc(N(CCNc2ccnc3cc(Cl)ccc23)Cc2ccc3c(c2)OCO3)nc(N2CCN(C)CC2)n1 gave a GI50 (EKVX NSCLC) of 4.4 µM, a TGI (EKVX NSCLC) of 18.9 µM and a GI50 (PC-3 prostate) of 4.59 µM. The TGI (PC-3 prostate) was 17.7 µM, the GI50 (HOP-62 NSCLC) was 2.22 µM and the TGI (HOP-62 NSCLC) was 15.4 µM. It also gave a GI50 (OVCAR-4 ovarian) of 2.83 µM, a TGI (OVCAR-4 ovarian) of 13.9 µM and a GI50 (NCI-H460 lung) of 2.65 µM. For the same molecule, the TGI (NCI-H460 lung) was 7.86 µM, the GI50 (HS 578T breast) was 1.87 µM and the TGI (HS 578T breast) was 5.2 µM. For the same molecule, the GI50 (HL-60(TB) leukemia) was 2.06 µM, the TGI (HL-60(TB) leukemia) was 4.27 µM and the GI50 (K-562 leukemia) was 1.16 µM. The TGI (K-562 leukemia) was 3.93 µM, the GI50 (SK-MEL-5 melanoma) was 1.79 µM and the TGI (SK-MEL-5 melanoma) was 3.25 µM. For the same molecule, the GI50 (SNB-75 CNS) was 1.44 µM and the TGI (SNB-75 CNS) was 3.04 µM.
In the case of COc1cc(-c2oc3ccccc3c(=O)c2O)cc(OC)c1OC, the TGI (EKVX NSCLC) is reported as > 100 µM, the TGI (PC-3 prostate) is reported as > 100 µM and the TGI (HOP-62 NSCLC) is reported as 71.1 µM. For the same molecule, the TGI (OVCAR-4 ovarian) was > 100 µM, the TGI (NCI-H460 lung) was > 100 µM and the TGI (HS 578T breast) was 98.9 µM. The TGI (HL-60(TB) leukemia) was > 28.1 µM, the TGI (K-562 leukemia) was > 100 µM and the TGI (SK-MEL-5 melanoma) was > 100 µM. It also gave a TGI (SNB-75 CNS) of 25.6 µM.

— PubChem BioAssay (NCI)
